Reference: patent US20260355325A1, “DIMER COMPOUNDS” (KESMALEA THERAPEUTICS LIMITED, priority 2023, published 2026)

How the values were obtained:
[1] = target: T1, AR (Androgen Receptor) (Homo sapiens, UniProt P10275); test: AR IFA Assay (androgen receptor degradation in LNCaP and VCaP cells); format: cell-based; details: AR degradation in cells (LNCaP, VCaP) at 48-hour timepoint
T1 construct: immunofluorescence degradation readout (antibody D6F11), 48 h
T1 sequence (P10275 1-920): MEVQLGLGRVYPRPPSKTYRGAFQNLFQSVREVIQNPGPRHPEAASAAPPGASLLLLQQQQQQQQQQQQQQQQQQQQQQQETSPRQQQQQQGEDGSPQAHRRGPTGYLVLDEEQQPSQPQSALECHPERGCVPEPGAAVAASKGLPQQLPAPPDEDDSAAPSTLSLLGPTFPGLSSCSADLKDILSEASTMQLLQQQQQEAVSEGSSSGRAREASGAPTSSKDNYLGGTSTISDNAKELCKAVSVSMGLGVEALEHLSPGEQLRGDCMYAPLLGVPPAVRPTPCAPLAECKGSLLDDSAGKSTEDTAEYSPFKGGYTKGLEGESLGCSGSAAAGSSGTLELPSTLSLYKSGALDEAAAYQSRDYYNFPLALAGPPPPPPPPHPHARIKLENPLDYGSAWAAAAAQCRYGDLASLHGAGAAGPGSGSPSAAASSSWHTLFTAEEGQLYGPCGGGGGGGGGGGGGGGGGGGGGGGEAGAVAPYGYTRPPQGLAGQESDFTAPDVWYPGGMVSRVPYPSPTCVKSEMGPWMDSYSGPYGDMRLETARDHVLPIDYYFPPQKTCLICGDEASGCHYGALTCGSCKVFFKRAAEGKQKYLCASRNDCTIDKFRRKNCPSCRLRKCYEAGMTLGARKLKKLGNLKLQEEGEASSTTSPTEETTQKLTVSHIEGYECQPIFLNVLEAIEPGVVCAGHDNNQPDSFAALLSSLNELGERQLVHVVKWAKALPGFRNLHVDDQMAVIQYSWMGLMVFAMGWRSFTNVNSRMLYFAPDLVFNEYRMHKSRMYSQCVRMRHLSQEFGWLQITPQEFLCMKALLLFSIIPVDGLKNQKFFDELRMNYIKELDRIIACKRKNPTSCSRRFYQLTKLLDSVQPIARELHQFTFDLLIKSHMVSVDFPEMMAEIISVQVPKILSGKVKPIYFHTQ
Text: The purpose of the AR Assays were to assess the binding affinity of the dimer to AR and subsequent protein degradation.
(§1) LNCaP, and VCaP cells were obtained from ATCC (ATCC, Manassas, VA). LNCaP cells were maintained in RPMI 1640 (Invitrogen™, Waltham, MA) supplemented with 10% FBS (AusGeneX, Molendinar, Australia) and 1% penicillin/streptomycin (Invitrogen™, Waltham, MA). VCaP cells were maintained in 1:1 ratio F-12(HAM) Nutrient mixture (AdvanCell Technology, Taichung city, Taiwan) and DMEM (Invitrogen™, Waltham, MA) supplemented with 10% FBS (AusGeneX, Molendinar, Australia) and 1% penicillin/streptomycin (Invitrogen™, Waltham, MA).
Compounds were dissolved in DMSO (10 mM), serially diluted from 10 mM to 1.5 nM, and pre-incubated for 2 hours. Exponentially growing cells were seeded at 8×10^3 cells per well of 384 well plate (Corning, New York #356663). Cells were treated with compound for 48 hours. Following treatment, cells were fixed with 4% PFA (SolarBio Lifescience, Beijing, China) for 20 minutes, permeabilised in 100% ice-cold methanol (Merck, Darmstadt, Germany) for 10 minutes, and blocked with blocking buffer (LI-COR Biosciences Lincoln, NE) for 90 minutes. Cells were incubated with primary Androgen Receptor (D6F11) XP® Rabbit mAb antibody (CST #5153 Danvers, MA) at 1:1000 dilution overnight in blocking buffer (LI-COR, Lincoln, NE) at 4° C. Cells were washed in DPBS (Thermo Fisher Scientific, Waltham, MA) and incubated with secondary antibody AlexaFluor 488 goat anti rabbit (Invitrogen™ #A-11008 Waltham, MA) 1:1000 dilution, with Hoechst stain (Invitrogen™ Waltham, MA) 1:5000 dilution in blocking buffer (LI-COR Biosciences, Lincoln, NE) for 90 minutes. After final DPBS wash, 200 ul of DPBS was added to the cells, and signal read on Operetta (Revvity, Waltham, MA). Each data point was performed in duplicate for every experiment. A DC50 value was calculated from linear regression analysis of the plots.

[2] = system: 22RV-1, LNCaP, and VCaP cells; test: AR CTG Assay (Cell Titer-Glo cell viability); format: cell-based; details: Cell viability in cells at 24-hour timepoint (22RV-1, LNCaP, VCaP; line not stated)
Text: as §1, with “22RV-1, LNCaP,” for “LNCaP,”, “VA). 22RV-1 and” for “VA).”
Compounds were dissolved in DMSO (10 mM), serially diluted from 10 mM to 1.5 nM, and pre-incubated for 2 hours. Exponentially growing cells were seeded at 8×10^3 cells per well of 384 well plate (Corning, New York #3570). Cells were treated with compound for 24 hours. Following treatment, Cell Titer-Glo® Detection reagent (Promega Corporation, Madison, WA) was added according to manufacturer's instructions, and signal read using BMG CLARIOstar plate reader (BMG Labtech, Ortenburg, Germany). Each data point was performed in duplicate for every experiment. A GI50 value was calculated from linear regression analysis of the plots.

| SMILES | DC50 [1] [µM] | IC50 [2] [µM] |
| --- | --- | --- |
| Cc1cc(C(=O)N(C)CCCOc2cccc3c2CN(C2CCC(=O)NC2=O)C3=O)ccc1B1O[C@H]2C[C@H]3C[C@H](C3(C)C)[C@@]2(CCCNc2ccc(C(=O)N[C@H]3CC[C@H](Oc4ccc(C#N)c(Cl)c4)CC3)cc2)O1 (mixture of isomers) [Example 23, 4-((3aR,4R,6R,7aS)-3a-(3-((4-((trans-4-(3-chloro-4-cyanophenoxy)cyclohexyl)carbamoyl)phenyl)amino)propyl)-5,5-dimethylhexahydro-4,6-methanobenzo[d][1,3,2]dioxaborol-2-yl)-N-(3-((2-(2,6-dioxopiperidin-3-yl)-1-oxoisoindolin-4-yl)oxy)propyl)-N,3-dimethylbenzamide] | 0.1 to 0.5 | > 10 |
| Cc1ccc(C(=O)N(C)CCCOc2cccc3c2CN(C2CCC(=O)NC2=O)C3=O)cc1B1O[C@H]2C[C@H]3C[C@H](C3(C)C)[C@@]2(CCCNc2ccc(C(=O)N[C@H]3CC[C@H](Oc4ccc(C#N)c(Cl)c4)CC3)cc2)O1 (mixture of isomers) [Example 24, 3-((3aR,4R,6R,7aS)-3a-(3-((4-((trans-4-(3-chloro-4-cyanophenoxy)cyclohexyl)carbamoyl)phenyl)amino)propyl)-5,5-dimethylhexahydro-4,6-methanobenzo[d][1,3,2]dioxaborol-2-yl)-N-(3-((2-(2,6-dioxopiperidin-3-yl)-1-oxoisoindolin-4-yl)oxy)propyl)-N,4-dimethylbenzamide] | 0.1 to 0.5 | > 10 |
| Cc1cc([C@@H](C(=O)N2C[C@H](O)C[C@H]2C(=O)NCc2ccc(Cl)cc2B2O[C@H]3C[C@H]4C[C@H](C4(C)C)[C@@]3(CCNc3ccc(C(=O)N[C@H]4CC[C@H](Oc5ccc(C#N)c(Cl)c5)CC4)cc3)O2)C(C)C)on1 (racemic) [Example 22, (2S,4R)—N-(4-chloro-2-((3aR,4R,6R,7aS)-3a-(2-((4-((trans-4-(3-chloro-4-cyanophenoxy)cyclohexyl)carbamoyl)phenyl)amino)ethyl)-5,5-dimethylhexahydro-4,6-methanobenzo[d][1,3,2]dioxaborol-2-yl)benzyl)-4-hydroxy-1-((S)-3-methyl-2-(3-methylisoxazol-5-yl)butanoyl)pyrrolidine-2-carboxamide] | 0.1 to 0.5 | > 10 |
| Cc1cc2c(cc1B1O[C@H]3C[C@H]4C[C@H](C4(C)C)[C@@]3(CCOc3ccc(N4C(=S)N(c5ccc(C#N)c(C(F)(F)F)c5)C(=O)C4(C)C)cc3)O1)CN(CCCOc1cccc3c1CN(C1CCC(=O)NC1=O)C3=O)C2=O (stereo partly drawn) [Example 21, 4-(3-(4-(2-((3aR,4R,6R,7aS)-2-(2-(3-((2-(2,6-dioxopiperidin-3-yl)-1-oxoisoindolin-4-yl)oxy)propyl)-6-methyl-1-oxoisoindolin-5-yl)-5,5-dimethyltetrahydro-4,6-methanobenzo[d][1,3,2]dioxaborol-3a(4H)-yl)ethoxy)phenyl)-4,4-dimethyl-5-oxo-2-thioxoimidazolidin-1-yl)-2-(trifluoromethyl)benzonitrile] | 0.1 to 0.5 | > 10 |
